Measured values published in patent publication US20200120909A1, “COMPOSITIONS AND METHODS FOR THE STUDY AND TREATMENT OF ACUTE KIDNEY INJURY” (THE JOHNS HOPKINS UNIVERSITY, priority 2014, published 2020).

Experiments:
T cells = details: cited from earlier work; for TNF-a and IFN-g production: after CD3/CD28 activation; for T helper phenotype skewing: pharmacologic activation of Nrf2
Nrf2 [1] = experiment: Nrf2 target gene expression in treated human peripheral blood mononuclear cells; assay type: cell-based
Method: (§1) FIG. 11. […] RNA isolated from these cells was analyzed by quantitative real-time PCR for expression of Nrf2 target genes, NQO1, HO-1 and GCLM. […] Furthermore, we treated peripheral blood mononuclear cells (PBMCs) from healthy individuals and treated them with CDDO-Me (Bardoxolone), an Nrf2 activator related to triterpenopid derivative CDDO-Im.

acute kidney injury = details: pharmacological activation of Nrf2 regulated antioxidant response; cited from earlier work
Nrf2 [2] = experiment: Ex-vivo Nrf2 activation of purified mouse T cells, real-time PCR of Nrf2 target genes; assay type: cell-based
Method: as §1
Antioxidant Gene Expression Analyses. Total RNA ([…]) from purified T cells was isolated with the RNeasy mini kit (Qiagen, Valencia, Calif.) and reverse transcribed using a high capacity cDNA synthesis kit (Life Technologies). A gene-specific TaqMan primer and probe sets were used to assess transcriptional status of Nrf2, Nqo1, Ho-1, Gclm, and Gclc in Quantstudio 12K flex real-time PCR (Life Technologies). The absolute expression values for each gene were normalized to that of b-actin and the relative gene expression values calculated.

[3] = purified T cells from wild type mice, 20 nM and 50 nM, 24 hours

## COc1ccc(O)c(C(C)(C)C)c1 [butylated hydroxyanisole]
T cells
  TNF-a and IFN-g production: suppress
  T helper phenotype skewing: skew T cells toward a Th2 type phenotype

## COC(=O)[C@]12CCC(C)(C)C[C@H]1[C@H]1C(=O)C=C3[C@@]4(C)C=C(C#N)C(=O)C(C)(C)[C@@H]4CC[C@@]3(C)[C@]1(C)CC2 [CDDO-Me, bardoxolone methyl]
Nrf2 [1]; PBMCs from healthy individuals, p=0.01
  gene expression of GCLM: significant increase
Nrf2 [1]; PBMCs from healthy individuals, p=0.02
  gene expression of NQO1: significant increase
Nrf2 [1]; PBMCs from healthy individuals, p=0.05
  gene expression of HO-1: significant increase

## CC1(C)CC[C@]2(C(=O)n3ccnc3)CC[C@]3(C)[C@H](C(=O)C=C4[C@@]5(C)C=C(C#N)C(=O)C(C)(C)[C@@H]5CC[C@]43C)[C@@H]2C1 [CDDO-Im]
Nrf2 [1]; human PBMCs, 20 and 50 μM
  activating Nrf2 regulated antioxidant gene expression: significantly effective
Acute kidney injury
  protection from acute kidney injury: can protect from acute kidney injury
Nrf2 [2]; [3]
  HO-1 mRNA expression: significant increase
  NQO1 mRNA expression: significant increase
Nrf2 [2]; purified mouse T cells, 20 and 50 μM
  activating Nrf2 regulated antioxidant gene expression: significantly effective

## CC(C)(C)c1cc(O)ccc1O [tertbutylhydroquinone, tert-butylhydroquinone]
T cells
  TNF-a and IFN-g production: suppress
  T helper phenotype skewing: skew T cells toward a Th2 type phenotype
